Test results reported in the NIST ThermoML archive (doi:10.1016/j.fluid.2016.02.004).
Numbers after ± are expanded uncertainties.

Assay: activity coefficient (dimensionless); of the first substance listed, at infinite dilution; xn = mol fraction of the nth substance listed
Conditions: 318.15 K; Liquid; Chromatography; x1 = 0

Structure (SMILES) | activity coefficient
CCCC(C)=O [pentan-2-one] + CCCCn1cc[n+](C)c1.N#CN=C=[N-] | 2 ± 0.14
CCC(=O)CC [pentan-3-one] + CCCCn1cc[n+](C)c1.N#CN=C=[N-] | 2.04 ± 0.14
CCCCC [pentane] + CCCCn1cc[n+](C)c1.N#CN=C=[N-] | 41.7 ± 2.9
CCCO [propan-1-ol] + CCCCn1cc[n+](C)c1.N#CN=C=[N-] | 0.826 ± 0.053
CC(C)O [propan-2-ol] + CCCCn1cc[n+](C)c1.N#CN=C=[N-] | 0.921 ± 0.058
CCCc1ccccc1 [propylbenzene] + CCCCn1cc[n+](C)c1.N#CN=C=[N-] | 7.36 ± 0.5
c1ccncc1 [pyridine] + CCCCn1cc[n+](C)c1.N#CN=C=[N-] | 0.845 ± 0.054
C=Cc1ccccc1 [styrene] + CCCCn1cc[n+](C)c1.N#CN=C=[N-] | 2.15 ± 0.15
C1CCOC1 [tetrahydrofuran] + CCCCn1cc[n+](C)c1.N#CN=C=[N-] | 1.55 ± 0.1
c1ccsc1 [thiophene] + CCCCn1cc[n+](C)c1.N#CN=C=[N-] | 1.14 ± 0.07
Cc1ccccc1 [toluene] + CCCCn1cc[n+](C)c1.N#CN=C=[N-] | 2.89 ± 0.2
O [water] + CCCCn1cc[n+](C)c1.N#CN=C=[N-] | 0.31 ± 0.03

Same assay, conditions: 328.15 K; Liquid; Chromatography; x1 = 0

Structure (SMILES) | activity coefficient
CCCC(C)=O [pentan-2-one] + CCCCn1cc[n+](C)c1.N#CN=C=[N-] | 2.11 ± 0.14
CCC(=O)CC [pentan-3-one] + CCCCn1cc[n+](C)c1.N#CN=C=[N-] | 2.16 ± 0.15
CCCCC [pentane] + CCCCn1cc[n+](C)c1.N#CN=C=[N-] | 40.1 ± 2.7
CCCO [propan-1-ol] + CCCCn1cc[n+](C)c1.N#CN=C=[N-] | 0.835 ± 0.054
CC(C)O [propan-2-ol] + CCCCn1cc[n+](C)c1.N#CN=C=[N-] | 0.93 ± 0.059
CCCc1ccccc1 [propylbenzene] + CCCCn1cc[n+](C)c1.N#CN=C=[N-] | 7.57 ± 0.52
c1ccncc1 [pyridine] + CCCCn1cc[n+](C)c1.N#CN=C=[N-] | 0.89 ± 0.06
C=Cc1ccccc1 [styrene] + CCCCn1cc[n+](C)c1.N#CN=C=[N-] | 2.28 ± 0.16
C1CCOC1 [tetrahydrofuran] + CCCCn1cc[n+](C)c1.N#CN=C=[N-] | 1.63 ± 0.11
c1ccsc1 [thiophene] + CCCCn1cc[n+](C)c1.N#CN=C=[N-] | 1.22 ± 0.08
Cc1ccccc1 [toluene] + CCCCn1cc[n+](C)c1.N#CN=C=[N-] | 3.01 ± 0.2
O [water] + CCCCn1cc[n+](C)c1.N#CN=C=[N-] | 0.323 ± 0.032

Same assay, conditions: 338.15 K; Liquid; Chromatography; x1 = 0

Structure (SMILES) | activity coefficient
CCCC(C)=O [pentan-2-one] + CCCCn1cc[n+](C)c1.N#CN=C=[N-] | 2.22 ± 0.15
CCC(=O)CC [pentan-3-one] + CCCCn1cc[n+](C)c1.N#CN=C=[N-] | 2.27 ± 0.15
CCCCC [pentane] + CCCCn1cc[n+](C)c1.N#CN=C=[N-] | 38.6 ± 2.6
CCCO [propan-1-ol] + CCCCn1cc[n+](C)c1.N#CN=C=[N-] | 0.844 ± 0.054
CC(C)O [propan-2-ol] + CCCCn1cc[n+](C)c1.N#CN=C=[N-] | 0.94 ± 0.059
CCCc1ccccc1 [propylbenzene] + CCCCn1cc[n+](C)c1.N#CN=C=[N-] | 7.78 ± 0.53
c1ccncc1 [pyridine] + CCCCn1cc[n+](C)c1.N#CN=C=[N-] | 0.94 ± 0.059
C=Cc1ccccc1 [styrene] + CCCCn1cc[n+](C)c1.N#CN=C=[N-] | 2.41 ± 0.16
C1CCOC1 [tetrahydrofuran] + CCCCn1cc[n+](C)c1.N#CN=C=[N-] | 1.71 ± 0.11
c1ccsc1 [thiophene] + CCCCn1cc[n+](C)c1.N#CN=C=[N-] | 1.29 ± 0.08
Cc1ccccc1 [toluene] + CCCCn1cc[n+](C)c1.N#CN=C=[N-] | 3.15 ± 0.21
O [water] + CCCCn1cc[n+](C)c1.N#CN=C=[N-] | 0.336 ± 0.032

Same assay, conditions: 348.15 K; Liquid; Chromatography; x1 = 0

Structure (SMILES) | activity coefficient
CCCC(C)=O [pentan-2-one] + CCCCn1cc[n+](C)c1.N#CN=C=[N-] | 2.32 ± 0.16
CCC(=O)CC [pentan-3-one] + CCCCn1cc[n+](C)c1.N#CN=C=[N-] | 2.38 ± 0.16
CCCCC [pentane] + CCCCn1cc[n+](C)c1.N#CN=C=[N-] | 37.3 ± 2.6
CCCO [propan-1-ol] + CCCCn1cc[n+](C)c1.N#CN=C=[N-] | 0.853 ± 0.055
CC(C)O [propan-2-ol] + CCCCn1cc[n+](C)c1.N#CN=C=[N-] | 0.948 ± 0.06
CCCc1ccccc1 [propylbenzene] + CCCCn1cc[n+](C)c1.N#CN=C=[N-] | 7.98 ± 0.54
c1ccncc1 [pyridine] + CCCCn1cc[n+](C)c1.N#CN=C=[N-] | 0.985 ± 0.062
C=Cc1ccccc1 [styrene] + CCCCn1cc[n+](C)c1.N#CN=C=[N-] | 2.53 ± 0.17
C1CCOC1 [tetrahydrofuran] + CCCCn1cc[n+](C)c1.N#CN=C=[N-] | 1.78 ± 0.12
c1ccsc1 [thiophene] + CCCCn1cc[n+](C)c1.N#CN=C=[N-] | 1.36 ± 0.09
Cc1ccccc1 [toluene] + CCCCn1cc[n+](C)c1.N#CN=C=[N-] | 3.27 ± 0.22
O [water] + CCCCn1cc[n+](C)c1.N#CN=C=[N-] | 0.349 ± 0.032

Same assay, conditions: 358.15 K; Liquid; Chromatography; x1 = 0

Structure (SMILES) | activity coefficient
CCCC(C)=O [pentan-2-one] + CCCCn1cc[n+](C)c1.N#CN=C=[N-] | 2.43 ± 0.17
CCC(=O)CC [pentan-3-one] + CCCCn1cc[n+](C)c1.N#CN=C=[N-] | 2.49 ± 0.17
CCCCC [pentane] + CCCCn1cc[n+](C)c1.N#CN=C=[N-] | 36.1 ± 2.5
CCCO [propan-1-ol] + CCCCn1cc[n+](C)c1.N#CN=C=[N-] | 0.862 ± 0.055
CC(C)O [propan-2-ol] + CCCCn1cc[n+](C)c1.N#CN=C=[N-] | 0.956 ± 0.06
CCCc1ccccc1 [propylbenzene] + CCCCn1cc[n+](C)c1.N#CN=C=[N-] | 8.15 ± 0.56
c1ccncc1 [pyridine] + CCCCn1cc[n+](C)c1.N#CN=C=[N-] | 1.03 ± 0.06
C=Cc1ccccc1 [styrene] + CCCCn1cc[n+](C)c1.N#CN=C=[N-] | 2.65 ± 0.18
C1CCOC1 [tetrahydrofuran] + CCCCn1cc[n+](C)c1.N#CN=C=[N-] | 1.85 ± 0.12
c1ccsc1 [thiophene] + CCCCn1cc[n+](C)c1.N#CN=C=[N-] | 1.43 ± 0.09
Cc1ccccc1 [toluene] + CCCCn1cc[n+](C)c1.N#CN=C=[N-] | 3.4 ± 0.2
O [water] + CCCCn1cc[n+](C)c1.N#CN=C=[N-] | 0.363 ± 0.033

Same assay, conditions: 368.15 K; Liquid; Chromatography; x1 = 0

Structure (SMILES) | activity coefficient
CCCC(C)=O [pentan-2-one] + CCCCn1cc[n+](C)c1.N#CN=C=[N-] | 2.53 ± 0.17
CCC(=O)CC [pentan-3-one] + CCCCn1cc[n+](C)c1.N#CN=C=[N-] | 2.6 ± 0.18
CCCCC [pentane] + CCCCn1cc[n+](C)c1.N#CN=C=[N-] | 34.9 ± 2.4
CCCO [propan-1-ol] + CCCCn1cc[n+](C)c1.N#CN=C=[N-] | 0.871 ± 0.056
CC(C)O [propan-2-ol] + CCCCn1cc[n+](C)c1.N#CN=C=[N-] | 0.963 ± 0.061
CCCc1ccccc1 [propylbenzene] + CCCCn1cc[n+](C)c1.N#CN=C=[N-] | 8.35 ± 0.57
c1ccncc1 [pyridine] + CCCCn1cc[n+](C)c1.N#CN=C=[N-] | 1.08 ± 0.07
C=Cc1ccccc1 [styrene] + CCCCn1cc[n+](C)c1.N#CN=C=[N-] | 2.78 ± 0.19
C1CCOC1 [tetrahydrofuran] + CCCCn1cc[n+](C)c1.N#CN=C=[N-] | 1.93 ± 0.13
c1ccsc1 [thiophene] + CCCCn1cc[n+](C)c1.N#CN=C=[N-] | 1.5 ± 0.1
Cc1ccccc1 [toluene] + CCCCn1cc[n+](C)c1.N#CN=C=[N-] | 3.54 ± 0.24
O [water] + CCCCn1cc[n+](C)c1.N#CN=C=[N-] | 0.376 ± 0.033
